Results taken from patent US9751869B2, “LXR modulators” (BRISTOL-MYERS SQUIBB COMPANY, priority 2013, dated 2017).

Molecular target: T1, LXRβ (Homo sapiens, UniProt P55055)
T1 construct: Co-transfection expression plasmids, comprising full-length LXRα (pCMX-h LXRα or LXRβ (pCMX-hLXRβ)); expressed in transfected cells; host or cells: CV-1 African green monkey kidney cells, transient transfection with pCMX-hLXRβ
T1 sequence (P55055 1-460): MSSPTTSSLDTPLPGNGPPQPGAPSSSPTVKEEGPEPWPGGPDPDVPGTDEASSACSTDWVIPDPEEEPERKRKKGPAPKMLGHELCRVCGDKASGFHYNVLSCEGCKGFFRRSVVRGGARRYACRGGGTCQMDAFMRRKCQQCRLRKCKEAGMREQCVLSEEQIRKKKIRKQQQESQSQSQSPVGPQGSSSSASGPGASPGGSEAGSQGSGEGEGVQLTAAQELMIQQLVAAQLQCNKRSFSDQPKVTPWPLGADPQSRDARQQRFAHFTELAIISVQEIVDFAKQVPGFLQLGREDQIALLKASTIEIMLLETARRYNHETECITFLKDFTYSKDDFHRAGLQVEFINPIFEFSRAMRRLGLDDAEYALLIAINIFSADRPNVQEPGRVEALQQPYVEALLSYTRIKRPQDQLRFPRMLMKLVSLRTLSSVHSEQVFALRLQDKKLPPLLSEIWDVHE
T1 sequence (P19793 1-462 partner): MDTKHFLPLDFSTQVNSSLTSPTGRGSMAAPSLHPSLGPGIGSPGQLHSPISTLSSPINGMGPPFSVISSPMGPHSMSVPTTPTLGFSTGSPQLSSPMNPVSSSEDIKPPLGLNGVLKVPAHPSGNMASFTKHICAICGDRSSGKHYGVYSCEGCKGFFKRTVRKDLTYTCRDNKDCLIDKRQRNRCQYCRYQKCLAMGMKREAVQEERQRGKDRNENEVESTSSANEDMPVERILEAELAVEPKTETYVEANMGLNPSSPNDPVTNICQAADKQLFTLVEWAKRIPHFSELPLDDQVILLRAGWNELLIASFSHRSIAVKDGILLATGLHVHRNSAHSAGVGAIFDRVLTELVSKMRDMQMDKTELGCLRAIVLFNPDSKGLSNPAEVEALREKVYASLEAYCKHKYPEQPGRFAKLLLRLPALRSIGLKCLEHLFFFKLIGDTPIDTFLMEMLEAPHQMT
Assay: LXR/LXRE co-transfection assay (luciferase reporter) in CV-1 cells, LXRβ
Type: cell-based
Details: for EC50: CV-1 cells transfected with pCMX-hLXRβ and LXREx1-Tk-Luciferase, 20 hours incubation, read-out: LXRbeta agonism EC50; for Emax: read-out: LXRbeta % EFFICACY
Procedure, shortened: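 CV-1 cells transiently co-transfected with full-length human LXRβ, LXRE-Tk-luciferase reporter and β-galactosidase control, then exposed to compound (≤0.5% DMSO) for 20 h at 37 °C before luminescence read. EC50 from 10-point, half-log dose curves; efficacy relative to the sulfonamide high control, means of 2–3 experiments.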

[1] = CV-1 cells, relative to maximum response of high control N-(3-((4-fluorophenyl)-(naphthalene-2-sulfonyl)amino)propyl)-2,2-dimethylpropionamide

SMILES | EC50 [nM] | Emax [1] [%] | LXRbeta % EFFICACY [1] [%]
Cc1nc(-c2ccc3c(c2)OC(F)(F)O3)c(-c2cc(-c3cc(F)c(CO)c(S(C)(=O)=O)c3)ccc2-c2cc(CC(N)=O)nn2C)o1 [Example 61, 2-(5-(3-(4-(2,2-difluorobenzo[d][1,3]dioxol-5-yl)-2-methyloxazol-5-yl)-3′-fluoro-4′-(hydroxymethyl)-5′-(methylsulfonyl)-[1,1′-biphenyl]-4-yl)-1-methyl-1H-pyrazol-3-yl)acetamide] | 592 | 40 | 
Cc1nc(-c2cc(-c3cc(F)c(CO)c(S(C)(=O)=O)c3)ccc2-c2cc(C(C)(C)CO)nn2C)c(-c2ccc3c(c2)OC(F)(F)O3)o1 [Example 62, 2-(5-(3-(5-(2,2-difluorobenzo[d][1,3]dioxol-5-yl)-2-methyloxazol-4-yl)-3′-fluoro-4′-(hydroxymethyl)-5′-(methylsulfonyl)biphenyl-4-yl)-1-methyl-1H-pyrazol-3-yl)-2-methylpropan-1-ol] | 30 | 72 | 
Cc1nc(-c2cc(-c3cc(F)c(CO)c(S(C)(=O)=O)c3)ccc2-c2cc(C(C)(C)C(N)=O)nn2C)c(-c2ccc3c(c2)OC(F)(F)O3)o1 [Example 63, 2-(5-(3-(5-(2,2-difluorobenzo[d][1,3]dioxol-5-yl)-2-methyloxazol-4-yl)-3′-fluoro-4′-(hydroxymethyl)-5′-(methylsulfonyl)biphenyl-4-yl)-1-methyl-1H-pyrazol-3-yl)-2-methylpropanamide] | 55 | 33 | 
Cc1nc(-c2cc(-c3cc(F)c(CO)c(S(C)(=O)=O)c3)ccc2-c2cc(C(C)(C)C(C)(C)O)nn2C)c(-c2ccc3c(c2)OC(F)(F)O3)o1 [Example 64, 3-(5-(3-(5-(2,2-difluorobenzo[d][1,3]dioxol-5-yl)-2-methyloxazol-4-yl)-3′-fluoro-4′-(hydroxymethyl)-5′-(methylsulfonyl)biphenyl-4-yl)-1-methyl-1H-pyrazol-3-yl)-2,3-dimethylbutan-2-ol] | 24 | 42 | 
Cc1nc(-c2ccc3c(c2)OC(F)(F)O3)c(-c2cc(-c3cc(F)c(CO)c(S(C)(=O)=O)c3)ccc2-c2cc(C(C)(C)C(N)=O)nn2C)o1 [Example 65, 2-(5-(3-(4-(2,2-difluorobenzo[d][1,3]dioxol-5-yl)-2-methyloxazol-5-yl)-3′-fluoro-4′-(hydroxymethyl)-5′-(methylsulfonyl)biphenyl-4-yl)-1-methyl-1H-pyrazol-3-yl)-2-methylpropanamide] | 67 | 55 | 
Cc1nc(-c2ccc3c(c2)OC(F)(F)O3)c(-c2cc(-c3cc(F)c(CO)c(S(C)(=O)=O)c3)ccc2-c2cc(C(C)(C)C(C)(C)O)nn2C)o1 [Example 66, 3-(5-(3-(4-(2,2-difluorobenzo[d][1,3]dioxol-5-yl)-2-methyloxazol-5-yl)-3′-fluoro-4′-(hydroxymethyl)-5′-(methylsulfonyl)biphenyl-4-yl)-1-methyl-1H-pyrazol-3-yl)-2,3-dimethylbutan-2-ol] | 27 | 27 | 
Cc1nc(-c2ccc3c(c2)OC(F)(F)O3)c(-c2cc(-c3cc(F)c(CO)c(S(C)(=O)=O)c3)ccc2-c2cc(C(C)(C)C#N)nn2C)o1 [Example 67, 2-(5-(3-(4-(2,2-difluorobenzo[d][1,3]dioxol-5-yl)-2-methyloxazol-5-yl)-3′-fluoro-4′-(hydroxymethyl)-5′-(methylsulfonyl)biphenyl-4-yl)-1-methyl-1H-pyrazol-3-yl)-2-methylpropanenitrile] | 24 |  | 79
Cc1nc(-c2ccc3c(c2)OC(F)(F)O3)c(-c2cc(-c3cc(F)c(CO)c(S(C)(=O)=O)c3)ccc2-c2cc(C(C)(C)c3nnco3)nn2C)o1 [Example 68, (4′-(3-(2-(1,3,4-oxadiazol-2-yl)propan-2-yl)-1-methyl-1H-pyrazol-5-yl)-3′-(4-(2,2-difluorobenzo[d][1,3]dioxol-5-yl)-2-methyloxazol-5-yl)-3-fluoro-5-(methylsulfonyl)biphenyl-4-yl)methanol] | 29 | 51 | 
Cc1nc(-c2ccc3c(c2)OC(F)(F)O3)c(-c2cc(-c3cc(F)c(CO)c(S(C)(=O)=O)c3)ccc2-c2cc(CS(=O)(=O)N(C)C)nn2C)o1 [Example 69, 1-(5-(3-(4-(2,2-difluorobenzo[d][1,3]dioxol-5-yl)-2-methyloxazol-5-yl)-3′-fluoro-4′-(hydroxymethyl)-5′-(methylsulfonyl)-[1,1′-biphenyl]-4-yl)-1-methyl-1H-pyrazol-3-yl)-N,N-dimethylmethanesulfonamide] | 160 | 24 | 
Cc1nc(-c2ccc(OC(F)(F)F)cc2)c(-c2cc(-c3cc(F)c(CO)c(S(C)(=O)=O)c3)ccc2-c2cc(C(F)(F)C(N)=O)nn2C)o1 [Example 70, 2,2-difluoro-2-(5-(3′-fluoro-4′-(hydroxymethyl)-3-(2-methyl-4-(4-(trifluoromethoxy)phenyl)oxazol-5-yl)-5′-(methylsulfonyl)biphenyl-4-yl)-1-methyl-1H-pyrazol-3-yl)acetamide] | 317 | 42 | 
Cc1nc(-c2ccc(OC(F)F)c(F)c2)c(-c2cc(-c3cc(F)c(CO)c(S(C)(=O)=O)c3)ccc2-c2cc(C(F)(F)C(N)=O)nn2C)o1 [Example 71, 2-(5-(3-(4-(4-(difluoromethoxy)-3-fluorophenyl)-2-methyloxazol-5-yl)-fluoro-4′-(hydroxymethyl)-5′-(methylsulfonyl)biphenyl-4-yl)-1-methyl-1H-pyrazol-3-yl)-2,2-difluoroacetamide] | 47 | 52 | 
Cc1nc(-c2ccc(OC(F)F)c(F)c2)c(-c2cc(-c3cccc(S(C)(=O)=O)c3)ccc2-c2cc(C(F)(F)C(N)=O)nn2C)o1 [Example 72, 2-(5-(3-(4-(4-(difluoromethoxy)-3-fluorophenyl)-2-methyloxazol-5-yl)-3′-(methylsulfonyl)biphenyl-4-yl)-1-methyl-1H-pyrazol-3-yl)-2,2-difluoroacetamide] | 73 | 60 | 
Cc1nc(-c2ccc3c(c2)OC(F)(F)O3)c(-c2cc(-c3cccc(S(C)(=O)=O)c3)ccc2-c2cc(C(F)(F)C(N)=O)nn2C)o1 [Example 73, 2-(5-(3-(4-(2,2-difluorobenzo[d][1,3]dioxol-5-yl)-2-methyloxazol-5-yl)-3′-(methylsulfonyl)biphenyl-4-yl)-1-methyl-1H-pyrazol-3-yl)-2,2-difluoroacetamide] | 42 | 55 | 
Cc1nc(-c2ccc3c(c2)OC(F)(F)O3)c(-c2cc(-c3cc(F)c(CO)c(S(C)(=O)=O)c3)ccc2-c2cc(C(F)(F)C(N)=O)nn2C)o1 [Example 74, 2-(5-(3-(4-(2,2-difluorobenzo[d][1,3]dioxol-5-yl)-2-methyloxazol-5-yl)-3′-fluoro-4′-(hydroxymethyl)-5′-(methylsulfonyl)biphenyl-4-yl)-1-methyl-1H-pyrazol-3-yl)-2,2-difluoroacetamide] | 92 | 60 | 
Cc1nc(-c2ccc3c(c2)OC(F)(F)O3)c(-c2cc(-c3cc(F)c(CO)c(S(C)(=O)=O)c3)ccc2-c2cc(C(F)(F)C(=O)O)nn2C)o1 [Example 75, 2-(5-(3-(4-(2,2-difluorobenzo[d][1,3]dioxol-5-yl)-2-methyloxazol-5-yl)-3′-fluoro-4′-(hydroxymethyl)-5′-(methylsulfonyl)biphenyl-4-yl)-1-methyl-1H-pyrazol-3-yl)-2,2-difluoroacetic acid] | 7670 | 52 | 
